Laboratory results as given in patent US8026211B2, “Methods and formulations for increasing intestinal function” (Technion Research & Development Foundation Ltd., priority 2004, dated 2011).

System: enterocytes
Assay: Rat model of SBS: enterocyte apoptosis (TUNEL assay)
Assay type: in vivo
Conditions: SBS rats, oral insulin
Method: Animal treatment: Animals were obtained from the Rappaport Faculty of Medicine (Technion, Haifa, Israel). Male rats weighing 240-260 g were kept in individual stainless steel cages at constant temperature and humidity, and a 12-hour light-dark cycle was maintained. Rats were fasted 12 hours prior to the experiment with free access to water. Animals underwent one of two surgical procedures: bowel transection and re-anastomosis or 75% bowel resection and anastomosis. General anesthesia was induced with Pentobarbital (IP 40 mg/kg). Using sterile techniques, the abdomen was opened using a midline incision. […]
Group C—SBS-Insulin (SBS-INS, n=13) rats underwent bowel resection and were fed regular chow diet and water containing insulin (ACTRAPID insulin, NOVO NORDISK, Denmark) at concentration of 1 u/ml. Food and fluid intake of animals were monitored as well as weight for a period of 14 days following treatment after which the animals were sacrificed following intraperitoneal injection of pentobarbital (75 mg/kg).
Apoptosis of enterocytes was assessed by terminal […] nick-end labeling (TUNEL) immunohistochemical assay using the I.S. Cell Death Detection kit (Boehringer Mannheim GmbH, Mannheim, Germany). […] For each group, the number of stained cells was counted in at ten villi in areas without necrosis. […]

## insulin
Vs SBS-untreated
  apoptotic cells number in ileum: did not affect
SBS-untreated 29±7, mean±SEM, p<0.05
  apoptotic index in jejunum: 11±3 TUNEL positive cells/10 villi
